Molecules are shown by their SMILES.

The IC50 is the point on the concentration scale where inhibition reaches its midpoint.

The target in one experiment is Lck (h) (Homo sapiens, UniProt P06239). In words: Lck Human  Kinase Enzymatic Radiometric Assay. The class given is biochemical. As to conditions: read-out: Lck IC50 nM Range*. In short, it runs like this:
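Substrate 33P-incorporation measured by scintillation counting after spotting on P30 filtermat and phosphoric acid washes. Human Lck reacted 40 min at RT in 50 mM Tris pH 7.5 with 10 mM MgAcetate, [gamma-33P]-ATP, 250 uM Cdc2 peptide, 0.1 mM EGTA and 0.1 mM Na3VO4.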

Experiment [1] deals with T1, Recombinant (1-346) HPK1 (h) (Homo sapiens, UniProt Q92918).
T1 construct: Recombinant (1-346) HPK1 (h) is incubated with 8 mM MOPS pH 7.0
T1 sequence (Q92918 1-346): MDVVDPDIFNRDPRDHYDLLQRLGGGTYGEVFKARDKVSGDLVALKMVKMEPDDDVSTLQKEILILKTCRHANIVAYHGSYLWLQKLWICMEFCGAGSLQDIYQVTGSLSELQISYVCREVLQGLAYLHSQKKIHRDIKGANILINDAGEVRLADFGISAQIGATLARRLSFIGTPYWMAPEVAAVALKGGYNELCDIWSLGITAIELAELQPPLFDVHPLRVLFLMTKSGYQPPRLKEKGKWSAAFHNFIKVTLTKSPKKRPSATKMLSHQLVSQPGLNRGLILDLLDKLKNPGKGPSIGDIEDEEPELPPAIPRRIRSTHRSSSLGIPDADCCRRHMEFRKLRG
In words: HPK1 Human STE Kinase Enzymatic Radiometric Assay. The experiment is classed as biochemical. As to conditions: read-out: HPK1 IC50 nM Range*. How it is done:
A stock solution of 10 mM of test compound is prepared in DMSO. The compound plate was prepared by 3-fold and 9-point serial dilutions. […] The reaction is initiated by The addition of the Mg/ATP mix. After incubation for 40 minutes at RT, the reaction is stopped by the addition of phosphoric acid to a concentration of 0.5%.

Chain of Lck (h) (P06239 whole entry): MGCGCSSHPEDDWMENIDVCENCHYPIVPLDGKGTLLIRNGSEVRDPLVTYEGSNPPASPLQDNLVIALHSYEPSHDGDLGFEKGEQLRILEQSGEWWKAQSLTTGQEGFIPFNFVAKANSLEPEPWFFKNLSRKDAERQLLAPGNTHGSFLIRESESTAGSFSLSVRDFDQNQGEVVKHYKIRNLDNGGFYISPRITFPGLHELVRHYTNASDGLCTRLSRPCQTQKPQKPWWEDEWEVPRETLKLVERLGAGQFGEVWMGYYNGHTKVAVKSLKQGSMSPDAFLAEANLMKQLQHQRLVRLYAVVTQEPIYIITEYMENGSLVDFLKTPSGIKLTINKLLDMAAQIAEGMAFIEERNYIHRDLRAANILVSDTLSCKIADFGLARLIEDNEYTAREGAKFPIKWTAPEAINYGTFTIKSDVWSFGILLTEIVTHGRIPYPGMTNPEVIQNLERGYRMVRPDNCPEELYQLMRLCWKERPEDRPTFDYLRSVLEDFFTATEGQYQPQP

As to `CC(C)(C)OC(=O)N1CCC(Oc2ccc(-c3cc(-c4ccc5c(c4)CCNC5=O)c(N)nc3F)cc2C#N)CC1` [I-176, tert-butyl 4-(4-(6-amino-2-fluoro-5-(1-oxo-1,2,3,4-tetrahydroisoquinolin-6-yl)pyridin-3-yl)-2-cyanophenoxy)piperidine-1-carboxylate], the IC50 on Lck (h) was over 1000 nM; in experiment [1], 11 to 100 nM.
As for `Nc1nc(F)c(-c2ccc(N3CCOCC3)cc2)cc1-c1cc(F)c2c(c1)CCNC2=O` [I-309, 6-(2-amino-6-fluoro-5-(4-morpholinophenyl)pyridin-3-yl)-8-fluoro-3,4-dihydroisoquinolin-1(2H)-one], the figures for the half-inhibitory concentration (IC50) (at Lck (h); in experiment [1]) were over 1000 nM and 0.1 to 10 nM, respectively.
The corresponding values for `CN(C)CC(=O)N1C[C@H]2C[C@@]2(c2ccc(-c3cc(-c4ccc5c(c4)CCNC5=O)c(N)nc3F)cc2)C1` [I-225, 6-(2-amino-5-(4-((1R,5S)-3-(dimethylglycyl)-3-azabicyclo[3.1.0]hexan-1-yl)phenyl)-6-fluoropyridin-3-yl)-3,4-dihydroisoquinolin-1(2H)-one] are over 1000 nM and 0.1 to 10 nM.
For `CN(C)Cc1cc(-c2cc(-c3ccc4c(=O)[nH]cc(F)c4c3)c(N)nc2F)ccc1C1CCOCC1` [I-503, 6-(2-amino-5-(3-((dimethylamino)methyl)-4-(tetrahydro-2H-pyran-4-yl)phenyl)-6-fluoropyridin-3-yl)-4-fluoroisoquinolin-1(2H)-one], the IC50 at Lck (h) was over 1000 nM; in experiment [1] it was 0.1 to 10 nM.
The matching figures for `Nc1nc(F)c(-c2ccc(N3CCN(CC4CC4)CC3)cc2)cc1-c1cc(F)c2c(=O)[nH]ccc2c1` [I-375, 6-(2-amino-5-(4-(4-(cyclopropylmethyl)piper-azin-1-yl)phenyl)-6-fluoropyridin-3-yl)-8-fluoroisoquinolin-1(2H)-one]: over 1000 nM and 0.1 to 10 nM.
The matching figures for `Nc1nc(F)c(-c2ccc(OC3CCN(CCC(F)(F)F)CC3)cc2)cc1-c1ccc2c(c1)CCNC2=O` [I-187, 6-(2-amino-6-fluoro-5-(4-((1-(3,3,3-trifluoropropyl)piperidin-4-yl)oxy)phenyl)pyridin-3-yl)-3,4-dihydroisoquinolin-1(2H)-one]: over 1000 nM and 0.1 to 10 nM.
The matching figures for `COCCN1CCC(Oc2ccc(-c3cc(-c4ccc5c(c4)CCNC5=O)c(N)nc3F)cc2C(F)(F)F)CC1` [I-262, 6-(2-amino-6-fluoro-5-(4-((1-(2-methoxyethyl)piperidin-4-yl)oxy)-3-(trifluoromethyl)phenyl)pyridin-3-yl)-3,4-dihydroisoquinolin-1(2H)-one]: over 1000 nM and 0.1 to 10 nM.
As for `C[C@@H]1C[C@@H](Oc2ccc(-c3cc(-c4ccc5c(c4)CCNC5=O)c(N)nc3F)cc2)C[C@H](C)N1` [I-178, 6-(2-amino-5-(4-(((2S,4s,6R)-2,6-dimethylpiperidin-4-yl)oxy)phenyl)-6-fluoropyridin-3-yl)-3,4-dihydroisoquinolin-1(2H)-one], the IC50 at Lck (h) was over 1000 nM; in experiment [1] it was 0.1 to 10 nM.
The corresponding values for `CN1CCc2cc(-c3cc(-c4ccc5c(c4)CCNC5=O)c(N)nc3F)ccc21` [I-253, 6-(2-amino-6-fluoro-5-(1-methylindolin-5-yl)pyridin-3-yl)-3,4-dihydroisoquinolin-1(2H)-one] are over 1000 nM and 11 to 100 nM.
The matching figures for `CC(C)N1CC2C(F)(F)C2(c2ccc(-c3cc(-c4ccc5c(c4)CCNC5=O)c(N)nc3F)cc2)C1` (stereo not shown) [I-171, 6-(2-amino-5-(4-(6,6-difluoro-3-isopropyl-3-azabicyclo[3.1.0]hexan-1-yl)phenyl)-6-fluoropyridin-3-yl)-3,4-dihydroisoquinolin-1(2H)-one]: over 1000 nM and 0.1 to 10 nM.
The matching figures for `Cc1c(N)cncc1-c1cc(-c2ccc3c(c2)CCNC3=O)c(N)nc1F` [I-234, 6-(5,6-diamino-2-fluoro-4′-methyl-[3,3′-bipyridin]-5-yl)-3,4-dihydroisoquinolin-1(2H)-one 2,2,2-trifluoroacetate]: over 1000 nM and over 1000 nM.
On to `Cc1nc2cc(-c3cc(-c4ccc(N5CCN(C(C)C)CC5)cc4)c(F)nc3N)c(F)cc2c(=O)[nH]1` [I-439, 7-(2-amino-6-fluoro-5-(4-(4-isopropylpiperazin-1-yl)phenyl)pyridin-3-yl)-6-fluoro-2-methylquinazolin-4(3H)-one], for which the IC50 on Lck (h) was over 1000 nM; in experiment [1] it was 11 to 100 nM.
Turning to `COc1cc(-c2cc(-c3ccc4c(c3)CCNC4=O)c(N)nc2F)ccc1OC1CCN(C(C)C)CC1` [I-273, 6-(2-amino-6-fluoro-5-(4-((1-isopropylpiperidin-4-yl)oxy)-3-methoxyphenyl)pyridin-3-yl)-3,4-dihydroisoquinolin-1(2H)-one], the IC50 on Lck (h) was over 1000 nM; in experiment [1] it was 0.1 to 10 nM.
As to `CNCC1Cc2cc(-c3cc(-c4ccc(N5CCN(C(C)C)CC5)cc4)c(F)nc3N)ccc2C(=O)N1` (stereo not shown) [I-286, 6-(2-amino-6-fluoro-5-(4-(4-isopropylpiperazin-1-yl)phenyl)pyridin-3-yl)-3-((methylamino)methyl)-3,4-dihydroisoquinolin-1(2H)-one], the figures for the IC50 (at Lck (h); in experiment [1]) were over 1000 nM and 0.1 to 10 nM, respectively.
The matching figures for `CN1CCOc2cc(-c3cc(-c4ccc5c(c4)CCNC5=O)c(N)nc3F)ccc21` [I-58, 6-(2-amino-6-fluoro-5-(4-methyl-3,4-dihydro-2H-benzo[b][1,4]oxazin-7-yl)pyridin-3-yl)-3,4-dihydroisoquinolin-1(2H)-one]: over 1000 nM and 0.1 to 10 nM.
The corresponding values for `Nc1nc(F)c(-c2ccc(C3CCNCC3)cc2)cc1-c1ccc2c(c1)CCNC2=O` [I-30, 6-(2-amino-6-fluoro-5-(4-(piperidin-4-yl)phenyl)pyridin-3-yl)-3,4-dihydroisoquinolin-1(2H)-one] are over 1000 nM and 0.1 to 10 nM.
The matching figures for `Cc1nc2cc(-c3cc(-c4ccc(N5CCN(CC6CC6)CC5)cc4)c(F)nc3N)ccc2c(=O)[nH]1` [I-411, 7-(2-amino-5-(4-(4-(cyclopropylmethyl)piper-azin-1-yl)phenyl)-6-fluoropyridin-3-yl)-2-methylquinazolin-4(3H)-one]: over 1000 nM and 11 to 100 nM.
With `CN(C)CCN(C)c1ccc(-c2cc(-c3ccc4c(c3)CCNC4=O)c(N)nc2F)cc1` [I-45, 6-(2-amino-5-(4-((2-(dimethylamino)ethyl)(methyl)amino)phenyl)-6-fluoropyridin-3-yl)-3,4-dihydroisoquinolin-1(2H)-one], the results for the IC50 (at Lck (h); in experiment [1]) were over 1000 nM and 0.1 to 10 nM, respectively.
The matching figures for `CC(=O)N1CCC2(CCc3cc(-c4cc(-c5ccc6c(c5)CCNC6=O)c(N)nc4F)ccc3O2)CC1` [I-193, 6-(5-(1′-acetylspiro[chromane-2,4′-piperidin]-6-yl)-2-amino-6-fluoropyridin-3-yl)-3,4-dihydroisoquinolin-1(2H)-one]: over 1000 nM and 0.1 to 10 nM.
The corresponding values for `CC(C)[C@@H]1CN(c2ccc(-c3cc(-c4ccc5c(c4)CCNC5=O)c(N)nc3F)c(F)c2)CCN1C` [I-49, (R)-6-(2-amino-6-fluoro-5-(2-fluoro-4-(3-isopropyl-4-methylpiperazin-1-yl)phenyl)pyridin-3-yl)-3,4-dihydroisoquinolin-1(2H)-one] are over 1000 nM and 0.1 to 10 nM.

The values are drawn from patent publication US20240343704A1, “HALO-SUBSTITUTED AMINO PYRIDINE COMPOUNDS AS INHIBITORS OF THE HAEMATOPOIETIC PROGENITOR KINASE 1 (HPK1)” (priority 2021, published 2024).
